pIC50: −log10 of the molar value.
Molecular target: human ACSS2 protein (Homo sapiens (Human), UniProt Q9NR19)
Assay: ACSS2 Cell-Free Activity Assay (Cell-Free IC50)
Details: 10 nM human ACSS2 protein, 90 minutes at 37 C, pyrophosphatase-coupled, Biomol Green absorbance at 620 nm; read-out: ACSS2 Biochemical IC50
From the text: ACSS2 Cell-Free Activity Assay (Cell-Free IC50)

Sequence of human ACSS2 protein (Q9NR19 whole entry): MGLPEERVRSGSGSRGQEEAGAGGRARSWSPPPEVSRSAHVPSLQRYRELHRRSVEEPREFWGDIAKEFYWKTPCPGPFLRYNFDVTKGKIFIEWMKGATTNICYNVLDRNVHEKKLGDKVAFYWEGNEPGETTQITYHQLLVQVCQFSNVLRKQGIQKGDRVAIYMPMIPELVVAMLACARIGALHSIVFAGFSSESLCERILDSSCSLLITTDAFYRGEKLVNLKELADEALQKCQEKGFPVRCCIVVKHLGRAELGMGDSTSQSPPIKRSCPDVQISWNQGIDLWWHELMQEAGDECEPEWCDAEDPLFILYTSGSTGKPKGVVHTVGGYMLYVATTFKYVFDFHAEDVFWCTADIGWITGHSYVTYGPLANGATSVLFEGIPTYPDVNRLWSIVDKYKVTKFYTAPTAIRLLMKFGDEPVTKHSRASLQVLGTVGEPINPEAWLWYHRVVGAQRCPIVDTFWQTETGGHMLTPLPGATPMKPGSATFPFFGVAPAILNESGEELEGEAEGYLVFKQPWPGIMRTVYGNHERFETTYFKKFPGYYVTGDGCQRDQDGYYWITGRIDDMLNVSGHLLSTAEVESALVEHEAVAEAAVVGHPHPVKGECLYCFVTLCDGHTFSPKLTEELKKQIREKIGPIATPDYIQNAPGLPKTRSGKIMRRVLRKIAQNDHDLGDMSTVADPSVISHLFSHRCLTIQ

| Compound | pIC50 |
| --- | --- |
| COc1c(Cc2ccc(Cl)cc2)cc(N2N=C(C)C(C(=O)Nc3cccc(C(C)(F)F)c3)C2=O)cc1-c1ccccc1 (stereo not drawn) [Compound 224, 1-(5-(4-chlorobenzyl)-6-methoxy-[1,1’-biphenyl]-3-yl)-N-(3-(1,1-difluoroethyl)phenyl)-3-methyl-5-oxo-4,5-dihydro-1H-pyrazole-4-carboxamide] | 7.00 to 9.00 |
| CCCc1cc(N2N=C(C)C(C(=O)Nc3cccc(C(F)(F)CC)c3)C2=O)cc(-c2ccccc2)c1OC (stereo not drawn) [Compound 225, N-(3-(1,1-difluoropropyl)phenyl)-1-(6-methoxy-5-propyl-[1,1’-biphenyl]-3-yl)-3-methyl-5-oxo-4,5-dihydro-1H-pyrazole-4-carboxamide] | 7.00 to 9.00 |
| CCC(F)(F)c1cccc(NC(=O)c2cc(C)nc(-c3cc(C)cc(-c4ccccc4)c3)n2)c1 [Compound 226, N-(3-(1,1-difluoropropyl)phenyl)-6-methyl-2-(5-methyl-[1,1′-biphenyl]-3-yl)pyrimidine-4-carboxamide] | < 7.00 |
| CCC(F)(F)c1cccc(NC(=O)c2nc(-c3ccc(OC(F)F)cn3)[nH]c2C)c1 [Compound 227, 2-(5-(difluoromethoxy)pyridin-2-yl)-N-(3-(1,1-difluoropropyl)phenyl)-5-methyl-1H-imidazole-4-carboxamide] | < 7.00 |
| COc1c(Cc2ccc(O)cc2)cc(N2N=C(C)C(C(=O)Nc3cccc(C(C)(F)F)c3)C2=O)cc1-c1ccccc1 (stereo not drawn) [Compound 228, N-(3-(1,1-difluoroethyl)phenyl)-1-(5-(4-hydroxybenzyl)-6-methoxy-[1,1′-biphenyl]-3-yl)-3-methyl-5-oxo-4,5-dihydro-1H-pyrazole-4-carboxamide] | 7.00 to 9.00 |
| CCC(F)(F)c1cccc(NC(=O)c2c(C)nn(-c3ccc(OC)cc3)c2F)c1 [Compound 229, N-(3-(1,1-difluoropropyl)phenyl)-5-fluoro-1-(4-methoxyphenyl)-3-methyl-1H-pyrazole-4-carboxamide] | 7.00 to 9.00 |
| CCC(F)(F)c1cccc(NC(=O)c2c(C)nn(-c3ccc(OC)cc3)c2C(C)=O)c1 [Compound 230, 5-acetyl-N-(3-(1,1-difluoropropyl)phenyl)-1-(4-methoxyphenyl)-3-methyl-1H-pyrazole-4-carboxamide] | < 7.00 |
| CCC(F)(F)c1cccc(NC(=O)c2c(C)nn(-c3ccc(OC)cc3)c2Cl)c1 [Compound 231, 5-chloro-N-(3-(1,1-difluoropropyl)phenyl)-1-(4-methoxyphenyl)-3-methyl-1H-pyrazole-4-carboxamide] | < 7.00 |
| CCC(F)(F)c1cccc(NC(=O)c2n[nH]c(-c3ccc(OC)cc3)c2C(C)=O)c1 [Compound 232, 4-acetyl-N-(3-(1,1-difluoropropyl)phenyl)-5-(4-methoxyphenyl)-1 H-pyrazole-3-carboxamide] | < 7.00 |
| CCC(F)(F)c1cccc(NC(=O)c2n[nH]c(-c3ccc(OC)cc3)c2Br)c1 [Compound 233] | < 7.00 |
| CCC(F)(F)c1cccc(NC(=O)c2c(C)nn(-c3ccc(OC)cc3)c2C(=O)OC)c1 [Compound 234, methyl 4-((3-(1,1-difluoropropyl)phenyl)carbamoyl)-1-(4-methoxyphenyl)-3-methyl-1H-pyrazole-5-carboxylate] | < 7.00 |
| CCC(F)(F)c1cccc(NC(=O)c2c(C)[nH]c(-c3ccc(OC)cc3)c2O)c1 [Compound 235, N-(3-(1,1-difluoropropyl)phenyl)-4-hydroxy-5-(4-methoxyphenyl)-2-methyl-1H-pyrrole-3-carboxamide] | < 7.00 |
| CCC(F)(F)c1cccc(NC(=O)C2C(=O)N(c3cc(Cc4ccc(Cl)cc4)c(OC)c(-c4ccccc4)c3)N=C2C)c1 (stereo not drawn) [Compound 236, 1-(5-(4-chlorobenzyl)-6-methoxy-[1,1′-biphenyl]-3-yl)-N-(3-(1,1-difluoropropyl)phenyl)-3-methyl-5-oxo-4,5-dihydro-1H-pyrazole-4-carboxamide] | 7.00 to 9.00 |
| COc1ccc(-c2ncc(C)c(C(=O)Nc3cccc(C(C)(F)F)c3)n2)cc1 [Compound 247, N-(3-(1,1-difluoroethyl)phenyl)-2-(4-methoxyphenyl)-5-methylpyrimidine-4-carboxamide] | 7.00 to 9.00 |
| CCC(F)(F)c1cccc(NC(=O)c2c(C)[nH]c(-c3ccc(OC)cc3)[n+]2[O-])c1 [Compound 248, 4-((3-(1,1-difluoropropyl)phenyl)carbamoyl)-2-(4-methoxyphenyl)-5-methyl-1H-imidazole 3-oxide] | > 9.00 |
| CCC(F)(F)c1cccc(NC(=O)c2c(C)[nH]c(-c3ccc(OC)c(-c4ncccc4C)c3)[n+]2[O-])c1 [Compound 249, 4-((3-(1,1-difluoropropyl)phenyl)carbamoyl)-2-(4-methoxy-3-(3-methylpyridin-2-yl)phenyl)-5-methyl-1H-imidazole 3-oxide] | > 9.00 |
| CCC(F)(F)c1cccc(NC(=O)c2c(C)oc(-c3ccc(OC)cc3)[n+]2[O-])c1 [Compound 250, 4-((3-(1,1-difluoropropyl)phenyl)carbamoyl)-2-(4-methoxyphenyl)-5-methyloxazole 3-oxide] | < 7.00 |
| CCC(F)(F)c1cccc(NC(=O)c2c(C)oc(-c3ccc(OC)c(-c4ncccc4C)c3)[n+]2[O-])c1 [Compound 251, 4-((3-(1,1-difluoropropyl)phenyl)carbamoyl)-2-(4-methoxy-3-(3-methylpyridin-2-yl)phenyl)-5-methyloxazole 3-oxide] | < 7.00 |
| CCC(F)(F)c1cccc(NC(=O)c2c(C)nn(-c3ccc(OC)cc3)[n+]2[O-])c1 [Compound 253, 5-((3-(1,1-difluoropropyl)phenyl)carbamoyl)-2-(4-methoxyphenyl)-4-methyl-2H-1,2,3-triazole 1-oxide] | < 7.00 |
| CCC(F)(F)c1cccc(NC(=O)c2cc(C)nc(-c3ccc(OC(F)F)cn3)c2)c1 [Compound 257, 5'-(difluoromethoxy)-N-(3-(1,1-difluoropropyl)phenyl)-6-methyl-[2,2′-bipyridine]-4-carboxamide] | < 7.00 |
| Cc1oc(-c2ccc(OC(F)F)c(-c3ccccn3)c2)nc1C(=O)Nc1cccc(C(C)(F)F)c1 [Compound 258, N-(3-(1,1-difluoroethyl)phenyl)-2-(4-(difluoromethoxy)-3-(pyridin-2-yl)phenyl)-5-methyloxazole-4-carboxamide] | < 7.00 |
| CCC(F)(F)c1cccc(NC(=O)c2nc(-c3ccc(OC(F)F)c(-c4ccccn4)c3)oc2C)c1 [Compound 259, 2-(4-(difluoromethoxy)-3-(pyridin-2-yl)phenyl)-N-(3-(1,1-difluoropropyl)phenyl)-5-methyloxazole-4-carboxamide] | < 7.00 |
| CCC(F)(F)c1cccc(NC(=O)c2nc(-c3ccc(OC(F)F)c(-c4ccccc4)n3)[nH]c2C)c1 [Compound 260, 2-(5-(difluoromethoxy)-6-phenylpyridin-2-yl)-N-(3-(1,1-difluoropropyl)phenyl)-5-methyl-1 H-imidazole-4-carboxamide] | < 7.00 |
| CCC(F)(F)c1cccc(NC(=O)c2c(C)[nH]c3ccc(OC)cc3c2=O)c1 [Compound 272, N-(3-(1,1-difluoropropyl)phenyl)-6-methoxy-2-methyl-4-oxo-1,4-dihydroquinoline-3-carboxamide] | 7.00 to 9.00 |
| CCC(F)(F)c1cccc(NC(=O)c2c(C)[nH]c3cc(OC)ccc3c2=O)c1 [Compound 273, N-(3-(1,1-difluoropropyl)phenyl)-7-methoxy-2-methyl-4-oxo-1,4-dihydroquinoline-3-carboxamide] | 7.00 to 9.00 |
| CCC(F)(F)c1cccc(NC(=O)C2CCN(Cc3ccc(OC)cc3)C(c3ccc(OC)cc3)C2O)c1 (stereo not drawn) [Compound 275, N-(3-(1,1-difluoropropyl)phenyl)-3-hydroxy-1-(4-methoxybenzyl)-2-(4-methoxyphenyl)piperidine-4-carboxamide] | < 7.00 |
| N-(3-(1,1-difluoroethyl)phenyl)-2-(6-(difluoromethoxy)-[1,1′-biphenyl]-3-yl)-4-methyloxazole-5-carboxamide [Compound 115] | < 7.00 |

Source: US12441689B2 (EpiVario, Inc., priority 2019, dated 2025)
